# Measurements reported in PubChem BioAssay AID179 (DTP/NCI, 2004).
# Values joined by “and” are separate entries in the source; they are usually repeats but may differ in a detail not shown here. Identical values can stand only once. Active and inactive are the calls of the source.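 How the source made its calls: active means compounds giving half or more protection of infected cells from virus-caused growth loss, again on retest; inactive means the rest.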
# Tested on: CEM cells HIV-1 protection, formazan growth assay
# Assay: NCI AIDS Antiviral Assay
# Conditions: for IC50: measured here: growth of uninfected CEM cells
# How it was run: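 Protection of CEM cells against HIV-1 measured as cell growth via soluble formazan read-out, with five concentrations tested on both infected and uninfected cells; failure to protect may reflect toxicity.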
SMILES,EC50,IC50,outcome
CCc1cc(CCC(=O)Nc2ccccc2[N+](=O)[O-])[nH]c(=S)n1,> 759 µM,> 759 µM,–
C/C(N)=N/OCc1nc(C)no1,> 200 µM,> 200 µM,–
O=C1CCCCC/C1=C\c1cccc(F)c1,> 200 µM,> 100 µM,–
CCCC(=O)Nc1ccc(C2=NNC(=O)C3CC23)cc1 (stereo unspecified),> 200 µM,> 200 µM,–
Cn1ccc2c(C(=O)c3ccccc3)cccc2c1=O,–,–,inactive
N#C/C(C(=O)Nc1ccc(Cl)cc1)=C(/N)N1CCOCC1,> 200 µM,> 200 µM,–
O=C1O[C@H]2[C@@H](I)[C@H]3C[C@H]2[C@H]1[C@H]3c1ccccc1,> 200 µM,> 200 µM,–
COc1cc(N)c2c(c1)SC(c1ccccc1)C(=O)N2 (stereo unspecified),> 200 µM,120 µM,–
CCCCNC(=O)/N=C/c1c(O)c2ccccc2oc1=O,> 91.2 µM,58.9 µM,–
CC/C(Cl)=N\OC(=O)Nc1ccccc1OC(F)(F)F,> 20 µM,3.16 µM,–
CCCCCCCCCCCCCCCCCc1nc(C#N)c(N)o1,> 200 µM,25.1 µM,–
CCCCNC(=O)OCCN=C1c2ccccc2C(Br)C(Br)c2ccccc21 (stereo unspecified),> 200 µM,26.9 µM,–
C=C1CC(C)(COc2ccc3c(C)c(C)c(=O)oc3c2C)OC1=O (stereo unspecified),> 2 µM,0.891 µM,–
O=[N+]([O-])c1ccc(Cl)cc1-n1nc(-c2ccccc2)cc1-c1ccccc1,> 200 µM,> 200 µM,–
CCCCN(CCCC)CCCNc1c2c(nc3cc(Cl)ccc13)CCCC2,> 200 µM,38.9 µM,–
O=c1[nH]nc(Cc2ccc(Cl)cc2)n1/N=C\CC/C=N\n1c(Cc2ccc(Cl)cc2)n[nH]c1=O,> 200 µM,148 µM,–
O=P(O)(CN(C1CCCCC1)C1CCCCC1)CN(C1CCCCC1)C1CCCCC1,178 µM,> 200 µM,–
Oc1cc2ccccc2c2sc(-c3ccccc3)c(-c3ccccc3)[n+]12,> 200 µM,17.8 µM,–
CC(C)OP(=O)(OC(C)C)/C(F)=N/Nc1ccc([N+](=O)[O-])cc1,> 38.9 µM,> 38.9 µM,–
CCOC(=O)C12C(C(=O)O)=C(N)CN1CCc1c2[nH]c2ccccc12 (stereo unspecified),> 58.9 µM,> 58.9 µM,–
CCN1CC2(COC)C(O)CC(OC)C34C5CC6(O)C(OC)C=C(C5C6OC(=O)c5ccc(OC)c(OC)c5)C(C(OC)C23)C14 (stereo unspecified),–,–,inactive
COc1ccc(/C=c2\[nH]c3nc(=O)c(N4CCCCC4)c(N)n3c2=O)cc1,> 200 µM,120 µM,–

SMILES,EC50,IC50,outcome
CNC(=O)N(C1CCCCC1)C1CCCCC1,> 200 µM,110 µM,–
CN1C(=O)C(O)(CC(=O)c2ccccc2)c2ccccc21 (stereo unspecified),> 200 µM,35.5 µM,–
CCn1c2ccccc2c2cc(N=Nc3ccc(C#N)cc3)ccc21,10.7 µM,> 200 µM,–
COc1ccc(NC(=O)/C(=N/NC(N)=S)C2C(=O)NC(=S)NC2=O)c(OC)c1,> 589 µM,> 589 µM,–
O=c1oc2ccccc2c(O)c1-c1cccc2ccccc12,–,–,inactive
O=[N+]([O-])c1ccc(-c2ccc(-c3csc(Nc4ccccn4)n3)o2)cc1,> 5.5 µM,> 5.5 µM,–
CN1c2ccccc2S(=O)(=O)n2c(COc3ccccc3)nnc21,> 200 µM,> 200 µM,–
Cc1ccc(N2C(N)=C(C#N)C(C#N)(C#N)C2c2ccccc2)cc1 (stereo unspecified),> 200 µM,2.82 µM,–
CCN(CC)CCCCCCCNc1c2ccc(Cl)cc2nc2ccc(OC)cc12,> 2 µM,0.427 µM,–
COc1ccc2c(c1)[n+](=O)c(C(=O)CC(=O)C(=O)Nc1cccc(C)c1C)c(C)n2[O-],> 117 µM,> 117 µM,–
CCOP(=O)(C/C=C\Cn1cnc(C(N)=O)c1N)OCC,> 200 µM,> 200 µM,–
COc1ccc(C2CC(=O)c3c(O)cc(OC4OC(CO)C(O)C(O)C4OC4OC(C)C(O)C(O)C4O)cc3O2)cc1O (stereo unspecified),> 200 µM,> 200 µM,–
Clc1ccc(NC2=NCCN=C(Nc3ccc(Cl)c(Cl)c3)SS2)cc1Cl,> 11.2 µM,> 11.2 µM,–
CCC1SC2=NCCN2C1(O)c1ccc(Cl)cc1 (stereo unspecified),> 200 µM,102 µM,–
CC(=O)Nc1ccc(S(=O)(=O)NN(C)S(=O)(=O)c2ccc(C)cc2)cc1,> 18.2 µM,> 18.2 µM,–
CN(C)CC1(C)Cc2cc(Cl)sc2C1=O (stereo unspecified),> 200 µM,> 200 µM,–
Cc1ccccc1[P+](Cc1ccccc1)(c1ccccc1C)c1ccccc1C,> 20 µM,1.07 µM,–
O=C1/C(=C\c2ccc(O)cc2)CCC/C1=C/c1ccc(Cl)c(Cl)c1,> 200 µM,1.12 µM,–
CCOC(=O)Nn1c(CC#N)nnc1Cc1ccccc1,> 200 µM,> 200 µM,–
CC(=O)C1(Cc2cccc3ccccc23)S(=O)(=O)OCCOS1(=O)=O,> 200 µM,110 µM,–
Cc1nn(C)c(N)c1N=O,> 200 µM,> 200 µM,–
COc1cc2c(cc1OC)C(CN)C2 (stereo unspecified),> 1070 µM,30.9 µM and 20 µM,–

SMILES,EC50,IC50,outcome
COc1cccc(N=NN2CCCC2)c1,> 200 µM,91.2 µM,–
O=C1C2CCN(CC2)C1CNC1(c2ccccc2)CCCCC1 (stereo unspecified),–,–,inactive
Cc1ccc(N=C2S/C(=C3/CCC=C3N3CCOCC3)N(c3ccc(Cl)cc3)C2=Nc2ccc(C)cc2)cc1,> 200 µM,> 200 µM,–
CN1CCCCC(C(O)(c2ccccc2)c2ccccc2)C1=O (stereo unspecified),> 115 µM,0.363 µM,–
C=C(CCCO)[C@@H]1CC[C@@](C)(O)[C@H]1C,–,–,inactive
COC1/C=C/OC2(C)Oc3c(C)c(OC(C)=O)c4c(c3C2=O)C(=O)C=C(NC(=O)/C(C)=C\C=C\C(C)C(OC(C)=O)C(C)C(O)C(C)C(OC(C)=O)C1C)C4=O (stereo unspecified),> 200 µM,3.02 µM,–
CCOC(=O)C1=C(C)C2C=C(c3cccs3)CC(c3ccc(Cl)cc3)=C2OC1=O (stereo unspecified),> 200 µM,91.2 µM,–
COc1ccc(C(C)c2cc3c(cc2OC)OCO3)cc1 (stereo unspecified),> 66.1 µM,0.427 µM,–
CC1=NN(C(=O)CC(=O)Nc2cccc(Cl)c2)C(=O)C1N=Nc1ccc(S(=O)(=O)c2ccc(N=NC3C(=O)N(C(=O)CC(=O)Nc4cccc(Cl)c4)N=C3C)cc2)cc1 (stereo unspecified),> 100 µM,> 100 µM,–
NCCN1C(=O)c2ccccc2C1c1ccc(Cl)cc1 (stereo unspecified),> 200 µM,> 200 µM,–
Cc1ccc(S(=O)(=O)NNC2Oc3cc4c(cc3C(c3ccccc3O)C2C)OCO4)cc1 (stereo unspecified),> 200 µM,26.3 µM,–
N#C/C(C(=O)Nc1ccccc1)=C(/N)N1CCOCC1,> 200 µM,> 200 µM,–
Brc1ccc(C=NC23CC4CC(CC(C4)C2)C3)cc1,> 56.2 µM,> 56.2 µM,–
COc1ccc(C2CCC(=O)CC2C(=O)O)cc1 (stereo unspecified),> 417 µM,> 417 µM,–
C/C(CC(=O)Nc1ccc([N+](=O)[O-])cc1)=N\Nc1ccc([N+](=O)[O-])cc1[N+](=O)[O-],> 24.5 µM,> 24.5 µM,–
CC(CO)[C@H]1OC(=O)C=C2[C@@]13O[C@@H]3[C@H]1OC(=O)[C@@]3(C)[C@H]4O[C@H]4C[C@@]2(C)[C@@H]13 (stereo partly specified),> 2 µM,0.776 µM,–
Nc1nc(Cl)c(CO)c(NCC2(CO)CCC2)n1,> 200 µM,191 µM,–
Cc1cc(O)c(/C=N/C(=O)NN)c(=O)o1,> 200 µM,> 200 µM,–
COc1ccc(C)cc1-c1ccc(-c2cc(C)ccc2OC)o1,> 72.4 µM,58.9 µM,–
CCOC(=O)C(=O)Nc1cccc(C)c1C,> 813 µM,> 813 µM,–
O=C([O][Bi]([c]1ccccc1)[c]1ccccc1)c1ccccc1,> 38.9 µM,> 38.9 µM,–
Cn1c(N)c(N)c(=O)[nH]c1=O,> 200 µM,162 µM,–

SMILES,EC50,IC50,outcome
CC1CCCOc2ccc(cc2)C=Nc2ccc(cc2)CCc2ccc(cc2)N=Cc2ccc(cc2)OCCC1 (stereo unspecified),> 200 µM,> 200 µM,–
O=C1Nc2noc(=O)nc2NO1,> 200 µM,> 200 µM,–
CN(C)c1ccc(C2SCC(=O)N2c2ccc(Oc3ccc(Cl)cc3)c(Cl)c2)cc1 (stereo unspecified),> 200 µM,29.5 µM,–
COc1ccc(C(=O)Nc2ccn(CCOC(=O)c3ccc(OC)cc3)c(=O)n2)cc1,> 44.7 µM,> 44.7 µM,–
COC(c1ccc(C(C)(C)C)cc1)(c1ccc(C(C)(C)C)cc1)c1cc(C(O)(c2cc(C(OC)(c3ccc(C(C)(C)C)cc3)c3ccc(C(C)(C)C)cc3)c(C)cc2C)c2cc(C(OC)(c3ccc(C(C)(C)C)cc3)c3ccc(C(C)(C)C)cc3)c(C)cc2C)c(C)cc1C,–,–,inactive
Cc1c2c(nc3ccccc13)C(=O)c1cccnc1C2=O,> 100 µM,13.5 µM,–
C/C(CC(=O)Nc1cccc(Cl)c1C)=N\NC(N)=S,> 120 µM,> 120 µM,–
O=C1C(c2ccccc2)=C(c2ccccc2)C(c2ccc(-c3ccc(C4=C(c5ccccc5)C(=O)C(c5ccccc5)=C4c4ccccc4)cc3)cc2)=C1c1ccccc1,> 3.55 µM,> 3.55 µM,–
CC(C)(C)N1C[C@H](C(=O)c2ccccc2)[C@@H]1c1ccccc1,> 33.9 µM,> 33.9 µM,–
COc1ccc(N2CC(=O)N(C(=O)COc3ccc(OCC(=O)N4C(=O)CN(c5ccc(OC)cc5)C4=S)cc3)C2=S)cc1,> 200 µM,87.1 µM,–
Cc1ccc(/C=C2\Cc3c(C)cc(C)cc3C2=O)c(C(=O)O)c1,> 200 µM,85.1 µM,–
C#CCNC(=O)NC(CCCCNC(=O)OCc1ccccc1)C(=O)OCc1ccccc1 (stereo unspecified),> 57.5 µM,42.7 µM,–
CCCc1cc(=O)oc2c3c(c4c(c12)OC(C)(C)[C@H](O)[C@@H]4O)O[C@@H](C)[C@H](C)[C@@H]3O,> 200 µM,87.1 µM,–
c1ccc([P+](Cc2cccc(C[P+](c3ccccc3)(c3ccccc3)c3ccccc3)c2)(c2ccccc2)c2ccccc2)cc1,> 200 µM,85.1 µM,–
O=C(N=Nc1ccccc1Cl)NNc1ccccc1Cl,> 200 µM,31.6 µM,–
CN(C)C(C(N)=O)c1ccccc1 (stereo unspecified),> 200 µM,> 200 µM,–
C[C@H](N)C(=O)N[C@@H]1[C@H]2C(=C(O)C[C@@H](O)[C@@H]2O)C(=O)O[C@@H]1C,–,–,inactive
COc1cc2c(cc1OC)C1CC(=O)C(CCCCCCC3CN4CCc5cc(OC)c(OC)cc5C4CC3=O)CN1CC2 (stereo unspecified),–,–,inactive
Cc1cc2c(=O)c3ccc(Cl)cc3[nH]c2c(C(N)=O)c1C,–,–,inactive
